Assay results from PMC7558535, “In Vitro Metabolism of DWP16001, a Novel Sodium-Glucose Cotransporter 2 Inhibitor, in Human and Animal Hepatocytes” (Pharmaceutics, 2020).

Experiments:
Type in all cases: in vitro ADME
[1] = Metabolic stability in human hepatocytes; conditions: pooled cryopreserved hepatocytes
Procedure: (§1) To evaluate the metabolic stability of DWP16001 in human, dog, monkey, mouse, and rat hepatocytes, pooled cryopreserved hepatocytes were carefully thawed in recovery medium and resuspended in incubation medium (Krebs–Henseleit buffer for mouse, rat, and human; William’s E media for dog and monkey) to 0.5 × 10^6 cells/mL for mouse, 0.67 × 10^6 cells/mL for rat, and 1.0 × 10^6 cells/mL for dog, monkey, and human in accordance with the manufacturer’s protocols. Then, 60-μL aliquots of these hepatocyte suspensions and an equal volume of 2 μM DWP16001 in incubation medium were mixed in 96-well plates and incubated in triplicate for 0, 30, 60, 90, 120, 180, or 240 min in a CO2 incubator at 37 °C. Reactions were stopped by addition of 120 µL of ice-cold acetonitrile to each well and the cell suspension was sonicated for 5 min at 4 °C, followed by centrifugation at 15,000× g for 10 min at 4 °C after 5 min of sonication. 80-µL aliquots of the supernatants were then vortex-mixed with 20 μL of ice-cold ketoconazole (an internal standard) in acetonitrile and analyzed by LC–tandem mass spectrometry (LC-MS/MS). The peak area ratios of DWP16001 versus internal standard at each sampling point were used for the subsequent calculation. Elimination parameters, including half-life (t1/2), intrinsic clearance (Clint), and hepatic clearance (Clhep) of DWP16001 in mouse, rat, dog, monkey, and human were calculated by the following equations [19]. (1) t1/2min=ln2/−k elimination slope (2) ClintmL/min/kg=ln2/t1/2×mL incubation/hepatocytes 10^6 cells×B×10^6 cells/g liver×A g liver/kg BW (3) ClhepmL/min/kg=Qh×Clint/Qh+Clint (4) Hepatic extraction ratio = Clhep/Qh
(§2) Here, A has values of 87.5, 40, 32, 32, and 25.7; B has values of 135, 117, 215, 120, and 139; Qh (representing hepatic blood flow) has values of 90, 55.2, 30.9, 43.4, and 20.7 mL/min/kg, for mouse, rat, dog, monkey, and human, respectively. Hepatic extraction ratio values of ≤ 0.25, 0.25–0.75, and ≥ 0.75 were regarded as low, moderate, and high, respectively.

human hepatocytes = assay: Metabolic stability in human hepatocytes
Procedure: as §1, §2

[2] = Metabolic stability in mouse hepatocytes; conditions: pooled cryopreserved hepatocytes, mouse hepatocytes
Procedure: as §1, §2

mouse hepatocytes = assay: Metabolic stability in mouse hepatocytes
Procedure: as §1, §2

[3] = Metabolic stability in rat hepatocytes; conditions: pooled cryopreserved hepatocytes
Procedure: as §1, §2

rat hepatocytes = assay: Metabolic stability in rat hepatocytes
Procedure: as §1, §2

CYP2C19 = biological target: T1, CYP2C19 (Homo sapiens, UniProt P33261); assay: CYP screening, recombinant CYP2C19
T1 construct: purchased Corning Life Sciences
Procedure: DWP16001, M1, or M2 was incubated with 11 human cDNA-expressed CYP enzymes (1A1, 1A2, 2A6, 2B6, 2C8, 2C9, 2C19, 2D6, 2E1, 3A4, and 3A5) to identify the CYP enzymes involved in the metabolism of DWP16001. Reaction mixtures of 95 µL containing DWP16001 (final concentration: 5 µM), M1 or M2 (final concentration: 10 µM), and CYPs (final amount: 10 pmol) were prepared in 0.1 M potassium phosphate buffer (pH 7.4). The reaction was started by adding 5 µL of NADPH-generating system; the mixtures were incubated for 30 min at 37 °C in triplicate. Reactions were stopped by the addition of 400 µL of ice-cold ketoconazole (internal standard, 200 ng/mL) in ice-cold acetonitrile. Samples were centrifuged at 15,000× g for 8 min at 4 °C. Seventy-five microliter aliquots of the supernatants were diluted with 75 µL of deionized water and analyzed using an LC–MS/MS system.

13 human UGT enzymes = assay: UGT screening, whole panel; conditions: incubation of DWP16001 with 13 human UGT enzymes, UDPGA
Procedure: To screen for UGT enzymes responsible for glucuronidation of DWP16001, 100 μL of reaction mixtures containing 13 human cDNA-expressed UGT enzymes (1A1, 1A3, 1A4, 1A6, 1A7, 1A8, 1A9, 1A10, 2B4, 2B7, 2B10, 2B15, and 2B17) at 0.1 mg protein/mL, 5 mM UDPGA, 0.025 mg/mL alamethicin, and 25 μM DWP16001 or M1 in 50 mM Tris buffer (pH 7.4) were incubated at 37 °C for 30 min in triplicate. Reactions were stopped by adding 100 μL of ketoconazole (internal standard, 200 ng/mL) in acetonitrile, followed by vortex-mixing and centrifugation (15,000× g, 8 min, 4 °C). The supernatant (75 μL) was diluted with equal volume of 30% acetonitrile and aliquots (5 μL) were injected into an LC-MS/MS system.

T1 sequence (P33261 whole entry): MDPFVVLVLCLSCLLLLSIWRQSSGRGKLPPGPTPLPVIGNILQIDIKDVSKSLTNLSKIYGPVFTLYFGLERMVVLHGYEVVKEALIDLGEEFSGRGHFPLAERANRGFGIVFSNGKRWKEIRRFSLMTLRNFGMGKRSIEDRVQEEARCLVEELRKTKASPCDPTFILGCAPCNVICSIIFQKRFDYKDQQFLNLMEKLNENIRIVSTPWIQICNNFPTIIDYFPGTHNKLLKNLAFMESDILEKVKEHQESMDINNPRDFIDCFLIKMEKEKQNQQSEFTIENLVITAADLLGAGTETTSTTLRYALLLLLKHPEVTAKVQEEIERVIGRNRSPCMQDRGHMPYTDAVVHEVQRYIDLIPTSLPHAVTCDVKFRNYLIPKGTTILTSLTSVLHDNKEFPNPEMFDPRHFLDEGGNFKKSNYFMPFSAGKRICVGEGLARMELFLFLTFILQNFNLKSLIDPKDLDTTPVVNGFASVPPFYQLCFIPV

With OC[C@H]1O[C@@H](c2cc(Cc3ccc(C4CC4)cc3)c(Cl)c3c2CCO3)[C@H](O)[C@@H](O)[C@@H]1O [DWP16001, (2S,3R,4R,5S,6R)-2-(7-chloro-6-(4-cyclopropylbenzyl)-2,3-dihydrobenzofuran-4-yl)-6-(hydroxymethyl)tetrahydro-2H-pyran-3,4,5-triol] the CLint scaled at 1 μM [1] was 5.7 mL/min/kg, the half-life at 1 μM ([1]; 37 °C, 0-240 min) was 14.4 h and the Hepatic extraction ratio (human hepatocytes) was 0.22. The “Hepatic extraction ratio class” value (human hepatocytes) was “low (Hepatic extraction ratio values of ≤ 0.25)”, the Clhep (human hepatocytes; well-stirred model) was 4.5 mL/min/kg and the CLint scaled at 1 μM [2] was 61.4 mL/min/kg. For the same compound, the half-life at 1 μM ([2]; 37 °C, 0-240 min) was 8.88 h, the “Hepatic extraction ratio class” value (mouse hepatocytes; mouse) was “moderate (0.25–0.75)” and the Hepatic extraction ratio (mouse hepatocytes; mouse hepatocytes) was 0.41. For the same compound, the Clhep (mouse hepatocytes; mouse hepatocytes, well-stirred model) was 36.5 mL/min/kg, the CLint scaled at 1 μM [3] was 9.8 mL/min/kg and the half-life at 1 μM ([3]; 37 °C, 0-240 min) was 16.5 h. For the same compound, the Hepatic extraction ratio (rat hepatocytes) was 0.15, the “Hepatic extraction ratio class” value (rat hepatocytes) was “low (Hepatic extraction ratio values of ≤ 0.25)” and the Clhep (rat hepatocytes; well-stirred model) was 8.3 mL/min/kg. The “Substrate of CYP2C19” value (CYP2C19) was “substrate” and the “Formation of U3 from DWP16001” value (13 human UGT enzymes) was “not formed”.
